In this experiment the target is PD-L1 (Homo sapiens (Human), UniProt Q9NZQ7). In words: PD-L1 HTRF assay (PD-1/PD-L1 interaction). The class given is binding. The following applies: PD-L1 His 6 nM, PD-1 Fc 6 nM; inhibitors 3-fold diluted from 20 μM. As to the method: PD-L1 small molecule inhibitors were diluted by 3-fold starting from 20 μM and a final concentration of 0.001 μM and added to the well. PD-1 Fc protein was added at the final concentration of 6 nM. PD-L1 His protein, PD-L1 small molecule inhibitors, and PD1 Fc proteins were added to the well in this order, with each 5 μl volume, and were incubated for 15 minutes at room temperature. […] The plate was read using PerkinElmer Envision plate reader and data was analyzed by Prism 6 software.
Chain of PD-L1 (Q9NZQ7 19-238): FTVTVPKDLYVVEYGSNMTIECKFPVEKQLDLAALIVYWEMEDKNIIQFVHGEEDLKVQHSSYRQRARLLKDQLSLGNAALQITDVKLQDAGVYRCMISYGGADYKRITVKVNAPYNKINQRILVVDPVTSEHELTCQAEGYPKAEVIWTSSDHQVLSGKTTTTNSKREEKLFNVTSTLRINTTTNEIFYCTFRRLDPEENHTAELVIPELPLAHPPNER
For orientation: Time-resolved FRET reads energy transfer from a long-lived donor to a nearby acceptor.
Broadly, the IC50 is the point on the concentration scale where inhibition reaches its midpoint. For the compound `COC(=O)c1c[nH]c(-c2cc(Cl)c(OCc3cccc(-c4cccc(OCCCN5CCC(O)CC5)c4C)c3C)cc2OCc2cncc(C#N)c2)n1` [Example 20, Methyl 2-(5-chloro-2-((5-cyanopyridin-3-yl)methoxy)-4-((3′-(3-(4-hydroxypiperidin-1-yl)propoxy)-2,2′-dimethyl-[1,1′-biphenyl]-3-yl)methoxy)phenyl)-1H-imidazole-5-carboxylate], the midpoint of inhibition, the IC50, lay at 10 nM. The same measure for `CC(=O)NCc1c[nH]c(-c2ccc(OCc3cccc(-c4ccccc4)c3C)cc2OCc2cccc(C#N)c2)n1` [Example 8, N-[[2-[2-[(3-Cyanophenyl)methoxy]-4-[(2-methyl-3-phenyl-phenyl)methoxy]phenyl]-1H-imidazol-4-yl]methyl]acetamide]: 19000 nM; for `Cc1c(COc2ccc(-c3nc(CO)c[nH]3)c(OCc3cccc(C#N)c3)c2)cccc1-c1ccccc1` [Example 5, 3-[[2-[4-(Hydroxymethyl)-1H-imidazol-2-yl]-5-[(2-methyl-3-phenyl-phenyl)methoxy]phenoxy]methyl]benzonitrile]: 16000 nM. The same measure for `Cc1c(COc2ccc(C3=NCC(O)CN3)c(OCc3cncc(C#N)c3)c2)cccc1-c1ccccc1` (stereo not shown) [Example 15, 5-((2-(5-Hydroxy-1,4,5,6-tetrahydropyrimidin-2-yl)-5-((2-methyl-[1,1′-biphenyl]-3-yl)methoxy)phenoxy)methyl)nicotinonitrile]: 15 nM; for `Cc1c(COc2cc(OCc3cncc(C#N)c3)c(C3=NC(C(=O)O)CCN3)cc2Cl)cccc1-c1cccc(OCCCN2CCC(O)CC2)c1C` (stereo not shown) [Example 18, 2-[5-Chloro-2-[(5-cyano-3-pyridyl)methoxy]-4-[[3-[3-[3-(4-hydroxy-1-piperidyl)propoxy]-2-methyl-phenyl]-2-methyl-phenyl]methoxy]phenyl]-1,4,5,6-tetrahydropyrimidine-4-carboxylic acid]: 1.2 nM. `Cc1c(COc2cc(OCc3cncc(C#N)c3)c(C3=NCCN3CC(=O)O)cc2Cl)cccc1-c1cccc(OCCCN2CCC(O)CC2)c1C` [Example 24, 2-[2-[5-Chloro-2-[(5-cyano-3-pyridyl)methoxy]-4-[[3-[3-[3-(4-hydroxy-1-piperidyl)propoxy]-2-methyl-phenyl]-2-methyl-phenyl]methoxy]phenyl]-4,5-dihydroimidazol-1-yl]acetic acid] yielded an IC50 of 1.1 nM.

In turn, `Cc1c(NC(=O)c2ccc(CNCCO)cn2)cccc1-c1cccc(NC(=O)c2ccc(CNCCO)cn2)c1C` [Example 34, 5-[(2-Hydroxyethylamino)methyl]-N-[3-[3-[[5-[(2-hydroxyethylamino)methyl]pyridine-2-carbonyl]amino]-2-methyl-phenyl]-2-methyl-phenyl]pyridine-2-carboxamide] displayed an IC50 of 1 nM. The same measure for `CC(=O)NCC/N=C(\NCCNC(C)=O)c1ccc(OCc2cccc(-c3ccccc3)c2C)cc1OCc1cccc(C#N)c1` [Example 14, N-[2-[[(Z)—N-(2-Acetamidoethyl)-C-[2-[(3-cyanophenyl)methoxy]-4-[(2-methyl-3-phenyl-phenyl)methoxy]phenyl]carbonimidoyl]amino]ethyl]acetamide]: 330 nM. The same measure for `Cc1c(COc2ccc(C3=NCCCN3C)c(OCc3cccc(C#N)c3)c2)cccc1-c1ccccc1` [Example 11, 3-[[2-(1-Methyl-5,6-dihydro-4H-pyrimidin-2-yl)-5-[(2-methyl-3-phenyl-phenyl)methoxy]phenoxy]methyl]benzonitrile]: 300 nM; for `COc1cc(OCc2cccc(-c3cccc(COc4cc(OC)c(CNCCO)cc4Cl)c3C)c2C)c(Cl)cc1CNCCO` [Example 31, 2,2′-((((((2,2′-Dimethyl-[1,1′-biphenyl]-3,3′-diyl)bis(methylene))bis(oxy))bis (5-chloro-2-methoxy-4,1-phenylene))bis(methylene))bis(azanediyl))bis(ethan-1-ol)]: 1 nM.

(Values after patent US20240374595A1, “SUBSTITUTED 1,1'-BIPHENYL COMPOUNDS, ANALOGUES THEREOF, AND METHODS USING SAME” (Arbutus Biopharma Corporation, priority 2018, published 2024).)
